Laboratory results published in patent US20070274916A1, “Method for Identifying Compounds that Affect Expression of Tryptophan Hydroxylase Isoform 2” (priority 2003, published 2007).

Tested on: TPH1 mRNA
Experiment: TPH1 mRNA levels in murine raphe slice preparation by real-time RT-PCR
Format: in vivo, mouse
Excerpt: Female mice (13 to 16 wks of age) were ovariectomized (C57BL/6s from Charles River; ER Knockout animals from Taconic). Animals were fed a soy-free rodent chow and allowed a minimum of one week to recuperate from surgery and shipping. […] Approximately six hours following the fourth dose, mice were deeply anesthetized with ketamine/xylazine and brains were removed from the skull, placed ventral side up in a mouse brain block on ice, and ice-cold razor blades were inserted into the block at 1 mm intervals. The caudal extent of the hypothalamus was used as an anatomical marker for the placement of the first razor blade, and 4 blades were placed in sequential slots, caudally. The four sections were examined and the two that encompassed the greatest extent of the dorsal raphe were placed in a tube containing RNALATER (Ambion, Austin, Tex.) and placed at 4° C. overnight. Brain slices were removed from RNALATER after 24 hours and stored at −80° C. in fresh tubes.
Isolation of total RNA from mouse raphe slices for real-time PCR analysis using the TAQMAN ABI PRISMS 7700 Detection System, Applied Biosystems, Foster City, Calif. was as follows. Samples were stored in RNALATER at 4° C. overnight followed by removal of RNALATER and storage at −80° C. until isolation of the total RNA (2 slices weigh 25 to 50 mg). Slices were removed from −80° C. and placed in 1.0 mL TRIZOL Reagent in FASTPREP processing tubes. Slices were homogenized with one pass at setting 6 for 30 seconds in FASTPREP 120 homogenizer using LYSING MATRIX D tubes with bead matrix followed by 20 seconds at setting 6 after all samples had been processed. Samples were set at room temperature for 5 minutes to allow for complete dissociation of nucleoprotein complexes followed by centrifugation of the samples at 12,000×g for 5 minutes at 4° C. Homogenates were transferred to 1.5 mL; microcentrifuge tubes and 100 μL BCP (Bromo-3-chloropropane) was added. Samples were vortexed for 15 seconds and set at room temperature for 2 to 3 minutes. Samples were centrifuged at 12,000×g for 15 minutes at 4° C. The aqueous layer was removed and placed in a new RNAse-free sterile 1.5 mL microcentrifuge tube. Five μL of 5 mg/μL glycogen was added to each sample and the samples were vortexed. Five hundred μL of isopropanol was added to each sample. The samples were vortexed for 15 seconds, set at room temperature 10 minutes, followed by centrifugation at 12,000×g for 15 minutes at 4° C. Supernatants were decanted and pellets washed with 500 μL ice cold 75% ethanol. Samples were centrifuged at 12,000×g for 15 minutes at 4° C., ethanol decanted, and pellets air dried for 10 minutes. Pellets were resuspended in 30 μL prewarmed RNASECURE (60° C.), and heated at 60° C. for 10 min. Samples were stored at −80° C. until DNAse treatment and cDNA synthesis.
DNase treatment and cDNA preparation with wt mouse raphe slice total RNA for TAQMAN analysis. DNase treatment using DNA-free kit (Ambion). Five μg of the total RNA sample was aliquotted to each well of a 96 well plate. An 1× DNase I solution was added to each sample (DNase I buffer, DNase I, H2O). Reactions were mixed and incubated at 37° C. for 30 minutes. Reactions were inactivated by addition of DNase inactivation reagent beads, mixed well at room temperature for 3 minutes and centrifuged at 2,500 RPM for 1 minutes at 4° C. (25 μL reactions were run and inactivated with 1/10 volume of inactivation reagent).
Reverse Transcription. A 10 μL of the DNase I-treated total RNA was added to 40 μL of 1× reverse transcription reaction mix (DEPC treated H2O, RT buffer, MgCl2, dNTP mix, random hexamers, RNase inhibitor, and MULTISCRIBE RT) and incubated at 25° C. for 10 minutes, 48° C. for 30 minutes, and 95° C. for 5 minutes. Reverse transcription was halted by the addition of EDTA. Samples were transferred to a storage plate and stored at −20° C. […]

C[C@]12CC[C@@H]3c4ccc(O)cc4CC[C@H]3[C@@H]1CC[C@@H]2O [17β-estradiol]
TPH1 mRNA induction in raphe slice (0.2 mpk s.c. once daily for four days, ovariectomized mice, FIG. 6): 1.8 fold
effect on TPH1 mRNA in the DRN (male and female mice, data not shown): induces

C[C@@H]1C[C@H]2[C@@H]3CCC4=CC(=O)C=C[C@]4(C)[C@@]3(F)[C@@H](O)C[C@]2(C)[C@@]1(O)C(=O)CO [dexamethasone]
effect on TPH1 mRNA levels (3 mpk s.c., ovariectomized mice, FIG. 6): no effect

CC#C[C@]1(O)CC[C@H]2[C@@H]3CCC4=CC(=O)CCC4=C3[C@@H](c3ccc(N(C)C)cc3)C[C@@]21C [mifepristone]
change of TPH1 mRNA levels in response to treatment (murine raphe slice preparations, dose not stated, FIG. 6): no detectable change
